Measured values from patent US20220168392A1 (priority 2019, published 2022).
Square brackets hold non-standard residues; d marks the D form. * marks the point of attachment. 2Nal = N[C@@H](Cc1ccc2ccccc2c1)C(=O)O; Propionyl = CCC(=O)*; Sar = CNCC(=O)O

Experiments:
[1] = test system: C3H/HeN male mice exposed to TBI; assay: 30-day survival after TBI in C3H/HeN mice; format: in vivo, mouse; conditions: C3H/HeN M, 8.75 Gy, 3 mg/kg single dose, Pre −24 hr; for Survival treatment: 3 mg/kg
Description: Total Body Irradiation (TBI). Mice were irradiated bilaterally in the Cobalt-60 gamma-irradiation facility at the AFRRI. These animals were placed in well-ventilated plexiglass chambers made specifically for irradiating mice. An alanine/Electron Spin Resonance (ESR) dosimetry system (American Society for Testing and Material Standard E 1607) was used to measure the dose rates in the cores of acrylic phantoms (3 inches long and 1 inch in diameter) located in all empty slots of the exposure rack in the plexiglass chamber. ESR signals were measured with a calibration curve based on standard calibration dosimeters provided by the National Institute of Standard and Technology (NIST, Gaithersburg, Md.). The calibration curve was verified by inter-comparison with the National Physical Laboratory (NPL) in the United Kingdom. The corrections applied to the measured dose rates in phantoms were for decay of the Co-60 source and for a small difference in mass-energy absorption coefficients for water and soft tissue at the Co-60 energy level. Kaplan-Meier survival curves were plotted using GraphPad software; and trend in survival is compared between vehicle and drug-treated group.
The survival efficacy of RWJ-800088 was tested in C57BL/6 (another strain of mice with different radiation sensitivity compared to CD2F1) in males and females. […] All animals in saline treated groups (males and females) died whereas there was no mortality in RWJ-800088 treated groups 30 days post-TBI. […] All animals in saline treated groups died whereas there was 92% survival observed in the RWJ-800088 (24 h pre-TBI) treated group 30 days post-TBI.

[2] = test system: Dog; assay: Maximum platelet elevation relative to baseline in normal healthy dogs, single escalating doses; format: in vivo; set-up: key to pharmacodynamics (PD) effect class of the dose (beneficial effects on survival): **: large pharmacodynamics (PD) effect; *: modest effect; conditions: for Dog Max Platelet Ratio: TOX6985; for maximum platelet elevation: canine
Description: The ratio of the maximum platelet counts to the baseline platelet counts following single escalating doses of RWJ-800088 to mice, rats, dogs, rhesus monkeys and human healthy volunteers is shown in Table 5. The dose required to achieve a 2-3.5-fold elevation in humans is ˜100-fold lower compared to mice, ˜1,000-fold lower compared to rats and >10,000-fold lower compared to canines and NHPs. […] The species differences in potency has been described for other TPO mimetics in the literature and is attributed to differences in receptor affinity (Erickson-Miller C L, et al. Discovery and characterization of a selective, nonpeptidyl thrombopoietin receptor agonist. Exp. Hematol. 2005; 33:85-93). […] It is discovered that the dose of RWJ-800088 that produces a survival benefit and protects against vascular and organ injury is the dose that produces a 2-4 fold elevation of platelets (Table 6).

[3] = test system: Mice, ear vein; assay: Ear vein model in mice (Table 6); format: in vivo, mouse; conditions: 0.3 mg/kg, whole wrapped cell: Reduced white cell adhesion to endothelium and vascular permeability
[4] = test system: female rats exposed to LD70 total body gamma radiation; assay: Rat whole body irradiation study; format: in vivo
Method: FIGS. 16A-B show the percent survival in female SD Rats (n=8/group) administered RWJ-800088 (TPOm) at different time points and dose levels—FIG. 16A: 3000 μg/kg at 6, 24 and 48 hours post TBI (7.18 Gy), and FIG. 16B: 300 and 3000 μg/kg at 24 hours post TBI (7.18 Gy).
RWJ-800088 was administered at a 3000 μg/kg dose by SC injection to female rats (n=8) at 6, 24, or 48 hours and additionally 300 μg/kg dose at 24 hours after exposure to an LD70 total body dose of gamma radiation (Gammacell 3000 irradiator).

[5] = test system: mouse bone marrow cells; assay: Hematopoietic progenitor clonogenic (CFU) assay of bone marrow after 7 Gy TBI; format: in vivo
Method: Hematopoietic Progenitor Clonogenic Assay: Clonogenicity of mouse bone marrow cells was quantified in standard semisolid cultures using 1 mL of Methocult GF+ system for mouse cells (Stem Cell Technologies Inc., Vancouver, BC) according to the manufacturer's instructions. Briefly, colony forming units (CFU) were assayed on days 0 (2 h post-TBI), 1, 3, 7, 15, and 30 after 7 Gy exposure or unirradiated mice. Cells from three femurs from different animals were pooled, washed twice with IMDM and seeded at 1 to 5×10^4 cells per 35 mm cell culture dishes (BD Biosciences, San Jose, Calif.). Each sample was plated in duplicate to be scored 14 days after plating. Granulocyte-macrophage colony forming units (CFU-GM), granulocyte-erythrocyte-monocyte-[…] CFU (CFU-GEMM), colony-forming unit-erythroid (CFU-E) and erythroid burst-forming units (BFU-E) were identified and quantified following the manufacturer's instructions. Colonies were counted 14 days after plating using a Nikon TS100F microscope. Fifty or more cells were considered one colony. Data were expressed as mean f standard error of mean (SEM). Statistical significance was determined between irradiated vehicle treated and RWJ-800088-treated groups.

[6] = test system: male BALB/c mice treated with carboplatin; assay: Carboplatin induced thrombocytopenia, anemia, mortality and brain microangiopathic events in mice; format: in vivo, mouse
Method: Materials and Methods: Increasing doses of carboplatin (i.e., 60, 70, or 80 mg/kg, i.p.) were administered on 2 consecutive days (Day 1 and Day 0) to male BALB/c mice (N=3 per group). Approximately 1 hour after carboplatin treatment on Day 0, sets of mice were treated with vehicle or RWJ-800088 (100 μg/kg, i.v.).
On Day 15, surviving mice were euthanized and blood samples were collected for the assessment of platelet and red blood cell (RBC) parameters. The brains of the mice were also isolated and preserved in 10% buffered formalin for immunohistochemical staining using anti-fibrinogen antibodies. Control mice were processed in a similar manner.

[7] = carboplatin 70 mg/kg, RWJ-800088 100 μg/kg i.v., Day 15

Substance: methoxypolyethyleneglycol20000-propionyl-L-Isoleucyl-L-Glutamyl-Glycyl-L-Prolyl-L-Threonyl-L-Leucyl-L-Arginyl-L-Glutaminyl-L-2-Naphthylalanyl-L-Leucyl-L-Alanyl-L-Alanyl-L-Arginyl-Sarcosyl-Ne-(methoxypolyethyleneglycol20000-propionyl-L-Isoleucyl-L-Glutamyl-Glycyl-L-Prolyl-L-Threonyl-L-Leucyl-L-Arginyl-L-Glutaminyl-L-2-Naphthylalanyl-L-Leucyl-L-Alanyl-L-Alanyl-L-Arginyl-Sarcosyl-)-Lysinamide ({mPEG 20 kDa-Propionyl}-IEGPTLRQ[2Nal]LAAR[Sar]K-NH2; also: dimer: second identical mPEG-propionyl chain on Lys Nε of C-terminal lysinamide) [RWJ-800088]
- Survival Differential (Treatment-Vehicle) [1]: 92%
- Survival treatment [1]: 92%
- Survival treatment ([1]; listed as TPOm): 92%
- Average of the Maximum Platelet Elevation/Baseline Platelet Counts ([2]; Dog, dose 10000 μg/kg): 1.7
- pharmacodynamics (PD) effect class of the dose (beneficial effects on survival) ([2]; Dog, dose 10000 μg/kg): *
- Dog Max Platelet Ratio ([2]; dose 300 μg/kg): 1.0 ± 0.3
- Dog Max Platelet Ratio ([2]; dose 3000 μg/kg): 1.4 ± 0.5
- Dog Max Platelet Ratio ([2]; dose 10000 μg/kg): 1.7 ± 0.5
- maximum platelet elevation [2]: ~7.7 fold
- maximum platelet elevation ([2]; listed as TPOm): ~1.7 fold
- Effects [3]: Reduced white cell
- Effects ([4]; Rats, whole body irradiation, whole wrapped cell: Enhanced survival, mitigation against thrombocytopenia, anemia): Enhanced survival,
- survival vs vehicle and RWJ-800088 at 48 hours post-irradiation ([4]; female rats, 3000 μg/kg SC at 6 and 24 hours post TBI (FIG. 16A)): significantly higher
- survival, 3000 μg/kg compared with 300 μg/kg ([4]; female rats, 24 hours post irradiation (FIG. 16B)): substantially increased
- total number of colonies in the vehicle-treated group compared to the RWJ-800088 treated group ([5]; day 15 post-TBI 7 Gy, 24 h pre-TBI administration): significantly lower
- GM, GEMM, BFU-E and CFU-E, vehicle-treated vs RWJ-800088 treated groups ([5]; day 30 post-TBI 7 Gy): significantly lower (p<0.0001)
- Effects ([6]; Mice, carboplatin chemotherapy, whole wrapped cell: Protection against thrombocytopenia, anemia and vascular hemorrhage in the brain): Protection against
- fibrinogen staining of brain sections (immunohistochemistry) [6, 7]: appeared normal with the intensity of fibrinogen staining similar to vessels in the brains of control mice
- signs of hemorrhage or edema in brain [6, 7]: none of the brains isolated from mice co-treated with RWJ-800088 exhibited signs of hemorrhage or edema
- platelet and RBC counts on Day 15 ([6]; carboplatin 60, 70 or 80 mg/kg i.p. on 2 consecutive days, RWJ-800088 100 μg/kg i.v. ~1 hour after carboplatin on Day 0): prevented the observed decreases in platelet and RBC counts
- mortality / euthanization ([6]; carboplatin 60-80 mg/kg i.p. x2 days, RWJ-800088 100 μg/kg i.v.): none of the mice treated with RWJ-800088 died or required euthanization
